Experimental data from the supplement of paper PMC10307832.

Assays:
Assay in all cases: relative viability (nuclei count vs DMSO), 5 days (fraction); higher = more cells survive
[1] = tested on: LXF-289
Procedure, shortened: (§1)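 For relative viability, nuclei counts in treated wells were divided by those in vehicle wells. Lung cancer cell lines had been pin-tool dosed in 1536-well plates the day after seeding and cultured for 5 days, then fixed and stained in one step (final 0.05% Triton X-100, 1% formaldehyde, 1 ug/ml Hoechst) and imaged at 4×. Doses were one drug alone or a fixed anchor-drug dose plus five library-drug doses (not always all listed) in √10 steps, and values are duplicate-plate medians.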

[2] = tested on: NCI-H322M
Procedure, shortened: as §1

[3] = tested on: NCI-H1650
Procedure, shortened: as §1

[4] = tested on: PC-14
Procedure, shortened: as §1

[5] = tested on: NCI-H2342
Procedure, shortened: as §1

[6] = tested on: EPLC-272H
Procedure, shortened: as §1

[7] = tested on: NCI-H2009
Procedure, shortened: as §1

[8] = tested on: EMC-BAC-2
Procedure, shortened: as §1

[9] = tested on: H3255
Procedure, shortened: as §1

[10] = tested on: NCI-H661
Procedure, shortened: as §1

[11] = tested on: NCI-H2085
Procedure, shortened: as §1

Compound `NC(=O)Nc1cc(-c2cccc(F)c2)sc1C(=O)N[C@H]1CCCNC1` [AZD7762] + O=C(c1cc(Cc2n[nH]c(=O)c3ccccc23)ccc1F)N1CCN(C(=O)C2CC2)CC1 [Olaparib] (partner 8 µM) has a relative viability ([1]; first compound 0.01 µM) of 1.11, a relative viability ([1]; first compound 0.03162 µM) of 1.18 and a relative viability ([1]; first compound 0.1 µM) of 1.21. The relative viability ([1]; first compound 0.3162 µM) was 1.16, the relative viability ([1]; first compound 1 µM) was 1.28 and the relative viability ([2]; first compound 0.01 µM) was 0.795. It also gave a relative viability ([2]; first compound 0.03162 µM) of 0.933, a relative viability ([2]; first compound 0.1 µM) of 0.85 and a relative viability ([2]; first compound 0.3162 µM) of 0.627. The relative viability ([2]; first compound 1 µM) was 0.354, the relative viability ([3]; first compound 0.01 µM) was 0.787 and the relative viability ([3]; first compound 0.03162 µM) was 0.863. The relative viability ([3]; first compound 0.1 µM) was 0.905, the relative viability ([3]; first compound 0.3162 µM) was 0.658 and the relative viability ([3]; first compound 1 µM) was 0.23. For the same compound, the relative viability ([4]; first compound 0.01 µM) was 0.248, the relative viability ([4]; first compound 0.03162 µM) was 0.157 and the relative viability ([4]; first compound 0.1 µM) was 0.0969. For the same compound, the relative viability ([4]; first compound 0.3162 µM) was 0.0837, the relative viability ([4]; first compound 1 µM) was 0.0568 and the relative viability ([5]; first compound 0.01 µM) was 0.449. The relative viability ([5]; first compound 0.03162 µM) was 0.393, the relative viability ([5]; first compound 0.1 µM) was 0.496 and the relative viability ([5]; first compound 0.3162 µM) was 0.457. It also gave a relative viability ([5]; first compound 1 µM) of 0.515, a relative viability ([6]; first compound 0.01 µM) of 1.08 and a relative viability ([6]; first compound 0.03162 µM) of 0.707. It also gave a relative viability ([6]; first compound 0.1 µM) of 0.586, a relative viability ([6]; first compound 0.3162 µM) of 0.219 and a relative viability ([6]; first compound 1 µM) of 0.0768. For the same compound, the relative viability ([7]; first compound 0.01 µM) was 0.719, the relative viability ([7]; first compound 0.03162 µM) was 0.726 and the relative viability ([7]; first compound 0.1 µM) was 0.747. For the same compound, the relative viability ([7]; first compound 0.3162 µM) was 0.521, the relative viability ([7]; first compound 1 µM) was 0.34 and the relative viability ([8]; first compound 0.01 µM) was 0.612. It also gave a relative viability ([8]; first compound 0.03162 µM) of 0.628, a relative viability ([8]; first compound 0.1 µM) of 0.626 and a relative viability ([8]; first compound 0.3162 µM) of 0.64. For the same compound, the relative viability ([8]; first compound 1 µM) was 0.547, the relative viability ([9]; first compound 0.01 µM) was 0.551 and the relative viability ([9]; first compound 0.03162 µM) was 0.542. The relative viability ([9]; first compound 0.1 µM) was 0.59, the relative viability ([9]; first compound 0.3162 µM) was 0.518 and the relative viability ([9]; first compound 1 µM) was 0.497. The relative viability ([10]; first compound 0.01 µM) was 0.798, the relative viability ([10]; first compound 0.03162 µM) was 0.779 and the relative viability ([10]; first compound 0.1 µM) was 0.711. The relative viability ([10]; first compound 0.3162 µM) was 0.503, the relative viability ([10]; first compound 1 µM) was 0.426 and the relative viability ([11]; first compound 0.01 µM) was 0.872. For the same compound, the relative viability ([11]; first compound 0.03162 µM) was 0.86, the relative viability ([11]; first compound 0.1 µM) was 0.917 and the relative viability ([11]; first compound 0.3162 µM) was 0.88. For the same compound, the relative viability ([11]; first compound 1 µM) was 0.903.
